The text below walks through data of US20240091366A1, “NOVEL ACID-SENSITIVE APTAMER TRIPTOLIDE CONJUGATE AND APPLICATIONS” (priority 2022, published 2024).

In data set [1] the test system is breast cancer cells MDA-MB-231. The experiment in a line: In vivo antitumor activity, breast cancer xenograft in nude mice. The arrangement: species or system mouse; Tumor weight: unit not given here. To be noted: MDA-MB-231 model, once every 2 days, 8 doses. From the text: The following are the in vivo activity studies conducted in different tumor-bearing mice:
The materials used in the experiments were the same as those tested in 5.1 Colon cancer cell lines, differing only in the tumor strains.
A PBS negative control group was set up.

The subject of a further data set is tumor cells. To be noted: background art; cited from earlier work.
Data set [2] can be described thus: MTT assay, cytotoxicity on normal cells. To be noted: 48 h. Format: cell-based, human. As to the method:
The same materials as those in Part II above are not repeated here, in addition to the following: human normal hepatocytes LO2, human embryonic kidney cells HEK293 were purchased from the Shanghai Cell Bank of the Chinese Academy of Sciences and preserved in our laboratory.
Take the […] LO2 and HEK293 cell lines from the liquid nitrogen tank, place them in a 37° C. water bath, wait for the frozen cells to melt into cell suspension, centrifuge the cells at 1000 r/min for 3 min, discard the supernatant, add 1 ml of fresh complete medium containing 10% fetal bovine serum and 1% double antibody to mix the cells, then add 5 ml of medium, gently and repeatedly blowing the cells with a pipette gun to make them mix well. Then add 5 ml of medium, blow the cells gently and repeatedly with a pipette gun to mix them well, and finally transfer the cell suspension to a […] and label the cell name, cell number, date of resuscitation and the operator's name, and place it in a cell culture incubator for cultivation. (HEK293 cell line was cultured with DMEM medium, LO2 cell line was cultured with RPMI1640 medium)
Take LO2 and HEK293 cells with good growth status, remove the medium, add 1 ml of sterile PBS to wash, add 1.5 ml of trypsin to digest the cells, about 2 min later the cells become round and fall off, add 1.5 ml of medium to terminate the digestion, transfer it to centrifugal tube, centrifuge at 1000 r/min for 3 min, discard the supernatant, add 1 ml of fresh medium to resuspend, then add fresh medium for 1:3 distribution to other culture dishes, and label the date of transmission and the number of generations. Place in the cell culture incubator for cultivation.
Take LO2 and HEK293 cells with good growth status, by the same operation as the cell passaging experiment, after cell resuspension, cell counting with hemocyte counting plate, with 3000 cells/well, plant in 96-well plate, after 24 h of cell culture, remove the original medium, add medium containing different concentrations of drugs and continue to cultivate for 48 hours. After 24 h of cell culture, the original medium was removed and the medium containing different concentrations of drugs was added to continue the culture for 48 hours. […] The above steps were repeated three times.

For data set [3] the following is noted: background art; cited from earlier work.

The term IC50 denotes the point on the concentration scale where inhibition reaches its midpoint. Regarding `CC(C)[C@]12O[C@H]1[C@@H]1O[C@]13[C@]1(O[C@H]1C[C@H]1C4=C(CC[C@@]13C)C(=O)OC4)[C@@H]2O` [TP, Triptolide], the RTV in data set [1] (10 μM tail vein) is on record as 27.18 ± 47; in data set [1] (30 μM tail vein) it was 16.44 ± 31; in data set [1] (50 μM tail vein), 12.89 ± 55. Moreover, the “T/C (%)” value in data set [1] (10 μM tail vein) came out at 65.57%; in data set [1] (30 μM tail vein), 39.66%; in data set [1] (50 μM tail vein), 31.10%. The “Tumor inhibition rate (%)” value turned out to be 31.78% in data set [1] (10 μM tail vein), 48.40% in data set [1] (30 μM tail vein) and 74.05% in data set [1] (50 μM tail vein). In addition, the results for the Tumor weight in data set [1] (10 μM tail vein), in data set [1] (30 μM tail vein) and in data set [1] (50 μM tail vein) were 2.34 ± 0.39, 1.77 ± 0.51 and 0.89 ± 0.08, respectively. In the data set with tumor cells, the “concentration effectively inhibiting the proliferation of tumor cells” value is 2 to 10 ng/mL. Besides, the IC50 at 48 h in data set [2] (human, LO2 normal hepatocyte cells, normal hepatocytes LO2, MTT) is 9.01 ± 0.25 nM; in data set [2] (normal human embryonic kidney cells HEK293, MTT), 5.98 ± 0.21 nM. In addition, the solubility in water result in data set [3] is given as “insoluble in water”.

For the molecule “AS1411: nucleolin aptamer, single-stranded oligonucleotide, SEQ ID NO: 1 GGTGGTGGTGGTTGTGGTGGTGGTGG”, in data set [1] (10 μM tail vein), the RTV was 39.29 ± 16, the “T/C (%)” value was 94.79%, the “Tumor inhibition rate (%)” value was found to be 7.00% and the Tumor weight turned out to be 3.19 ± 0.27. Besides, in data set [1] (30 μM tail vein), the RTV came out at 37.55 ± 34, the “T/C (%)” value was found to be 90.59%, the “Tumor inhibition rate (%)” value was found to be 14.87% and the Tumor weight was 2.92 ± 0.39. In data set [1] (50 μM tail vein), the RTV is listed as 35.19 ± 38, the “T/C (%)” value amounted to 84.90%, the “Tumor inhibition rate (%)” value was 18.95% and the Tumor weight came out at 2.78 ± 0.41.
